Test results from ChEMBL document CHEMBL1130928 (Bioorg Med Chem Lett, 1998).
pIC50: −log10 of the molar value.

Columns and labels:
[1] = target: Human immunodeficiency virus type 1 reverse transcriptase (Human immunodeficiency virus 1, UniProt Q72547, K103N); test: Compound was tested for inhibitory activity against HIV-1 mutant type reverse transcriptase (K103N)
[2] = target: T1, Human immunodeficiency virus type 1 reverse transcriptase (Human immunodeficiency virus 1, UniProt Q72547); test: Compound was tested for inhibitory activity against HIV-1 mutant type reverse transcriptase ([…])
[3] = target: Human immunodeficiency virus type 1 reverse transcriptase (Human immunodeficiency virus 1, UniProt Q72547, P236L); test: Compound was tested for inhibitory activity against HIV-1 mutant type reverse transcriptase (P236L)
[4] = target: Human immunodeficiency virus type 1 reverse transcriptase (Human immunodeficiency virus 1, UniProt Q72547, Y181C); test: Compound was tested for inhibitory activity against HIV-1 mutant type reverse transcriptase (Y181C)
[5] = target: T1, Human immunodeficiency virus type 1 reverse transcriptase; test: Compound was tested for inhibitory activity against HIV-1 wild type reverse transcriptase

| Compound | pIC50 [1] | pIC50 [2] | pIC50 [3] | pIC50 [4] | pIC50 [5] |
| --- | --- | --- | --- | --- | --- |
| CCN1c2ncccc2C=Cc2cccnc21 | 5.82 | 6.64 | 8.00 | 5.60 | 7.40 |
| C1=Cc2cccnc2N(C2CC2)c2ncccc21 | 6.20 | 6.82 | 8.00 | 6.02 | 7.70 |
